Measurements as given in patent US7566724B2, “Glycine derivative and use thereof” (Toray Industries, Inc., priority 2004, dated 2009).
Structures can show the parent of a compound that is named as a salt.

Columns and labels:
Jurkat cells = assay: Measurement of Inhibitory Effect on Leukocyte Functions (adhesion of Jurkat cells to ligand-expressing cells or ligand-immobilized plate); assay type: cell-based; settings: Homo sapiens, 0.5 h; fluorescently labelled Jurkat cells, ligand-expressing cells or ligand-immobilized plate, 37° C. 30 minutes; read-out: IC50 (adhesion of Jurkat cells)
Description: Jurkat cells which are a cell line originated from human acute T cell lymphoma were allowed to react with BCECF-AM at 37° C. for 20 minutes to fluorescently label the cells. The fluorescently labelled Jurkat cells were allowed to react with ligand-expressing cells or with a ligand-immobilized plate at 37° C. for 30 minutes. After removing non-adherent cells by washing, 1% NP40 was added to lyse the adherent cells, and fluorescence intensity was measured with Cytoflow 2300 (Millipore). From the obtained fluorescence intensity, the number of adherent cells was calculated. Each test compound was reacted with the Jurkat cells before the beginning of the adhesion reaction. In Table 18, the IC50 of each compound is shown.

[1] = tested on: leukotriene B4 production by neutrophils; assay: Measurement of Inhibitory Effect on Inflammatory Mediator Production by Leukocytes (ionomycin-induced leukotriene B4 in neutrophils); assay type: cell-based; settings: 0.5 h, human neutrophil suspension, 37° C. 30 minutes, EIA
Description: A mixture of human peripheral blood and physiological saline containing 3% dextran was left to stand for 30 minutes and then the upper layer was recovered. The upper layer was overlaid on Histopaque 1077 (SIGMA), and the resultant was centrifuged at 1400 rpm for 30 minutes. The supernatant was removed by aspiration and a buffer was added to the precipitate to prepare a neutrophil suspension (4×10^5 cells/mL). To the neutrophil suspension, ionomycin was added and the mixture was incubated at 37° C. for 30 minutes, followed by quantification of leukotriene B4 by EIA (Amersham, Biotrak EIA system). Each test compound was added to the neutrophil suspension before adding ionomycin. In Table 19, the IC50 of each compound is shown.

[2] = Pharmacokinetic Evaluation in Rats; assay type: in vivo; settings: rat, male SD rats, administered orally or intravenously, plasma up to 8 hours, LC/MS/MS; for bioavailability: oral, read-out: BA(%) (bioavailability); for clearance: read-out: CLtot (total clearance) (converted)
Description: Each compound was dissolved at a concentration of 0.5 mg/ml in PBS or in PBS containing 10% PEG. The compound was administered orally or intravenously to male SD rats (7 to 9 weeks old). Blood was collected from the tail vein at time points up to 8 hours after the administration, and blood plasma was collected by centrifugation from each obtained blood. The blood plasma was pretreated by using the solid-phase extraction method, and the concentration of the compound was analyzed with LC/MS/MS (ESI negative mode).
As the Comparative Compound, 2-[4-((3,5-dichlorobenzensulfonylamino)methyl)benzoylamino]-5-(4-(methyl-pyrimidin-2-ylamino)phenyl)pento-4-ene acid (XXI) described in WO 99/26923 was used.
[“BA” in Table 17 means bioavailability, and “CLtot” means total clearance.]

DSS-induced colitis [3] = assay: Dextran Sulfate Sodium (DSS)-induced Colitis Model of mice (2); assay type: in vivo, Female BALB/c mice; settings: orally 5 mg/kg every day from Day 27 to Day 31; DSS 5 to 7 days then water 5 days, repeated 3 times
Description: Female BALB/c mice (Charles River, Japan) of 7 to 9 weeks old were allowed to freely drink 3 w/v % dextran sulfate sodium (DSS) for 5 to 7 days, and then to freely drink sterilized distilled water for 5 days. The procedure was repeated 3 times to induce colitis. The non-induced (background) group was allowed to freely drink sterilized distilled water. The compounds described in Examples 81 and 84 were orally administered to the mice at a dose of 5 mg/kg, respectively, every day from Day 27 to Day 31 after from the beginning of the drinking, and stool consistency was scored (0: normal stool, 2: loose stool, 4: diarrhea) by using the method described by Murthy et al (see, for example, Dig Dis Sci., 38, 1722 (1993).

DSS-induced colitis [4] = assay: Dextran Sulfate Sodium (DSS)-induced Colitis Model of Mice (1); assay type: in vivo, Female BALB/c mice; settings: 3 w/v % DSS for 8 days, scored at day 8
Description: Female BALB/c mice (Charles River, Japan) of 7 to 9 weeks old were allowed to freely drink 3 w/v % dextran sulfate sodium (DSS) for 8 days to induce colitis. The non-induced (background) group was allowed to freely drink sterilized distilled water. The compound described in Example 28 was orally administered to the mice at a dose of 5 mg/kg, and the compounds described in Example 4, Example 22 and Example 78 were orally administered to the mice at a dose of 15 mg/kg every day. At day 8 from the beginning of the drinking, stool consistency was scored (0: normal stool, 2: loose stool, 4: diarrhea) by using the method described by Murthy et al (see, for example, Dig Dis Sci., 38, 1722 (1993)).

## Cc1cccc(Cl)c1C(=O)NC(C/C=C/c1ccc(N(C)c2ncccn2)cc1)C(=O)O (centres unmarked) [Example 67, (E)-2-(2-Chloro-6-methylbenzamido)-5-[4-(methyl-pyrimidin-2-ylamino)phenyl]pent-4-enoic acid]
Jurkat cells
  IC50: 280 nM
[1]
  IC50: 30000 nM

## CN(c1ccc(/C=C/C[C@H](NC(=O)c2c(Cl)cccc2Cl)C(=O)[O-])cc1)c1ncccn1.[Na+] [Example 81, (S,E)-2-(2,6-Dichlorobenzamido)-5-[4-(methyl-pyrimidin-2-ylamino)phenyl]pent-4-enoic acid sodium salt]
Jurkat cells
  IC50: 82 nM
[2]
  bioavailability: 52.1%
  clearance: 17 mL/min/kg
DSS-induced colitis [3]
  rate of amelioration (stool consistency score): 68.8%

## CC(C)N(c1ccc(/C=C/CC(NC(=O)c2c(Cl)cccc2Cl)C(=O)O)cc1)c1ncccn1 (centres unmarked) [Example 28, (E)-2-(2,6-Dichlorobenzamido)-5-[4-(isopropyl-pyrimidin-2-ylamino)phenyl]pent-4-enoic acid]
DSS-induced colitis [4]; orally 5 mg/kg every day
  rate of amelioration (stool consistency score): 71%
Jurkat cells
  IC50: 56 nM
[2]
  bioavailability: 80.6%
  clearance: 14.9 mL/min/kg
[1]
  IC50: 7400 nM

## O=C(NC(C/C=C/c1ccc(N(Cc2ccccc2)c2ncccn2)cc1)C(=O)O)c1c(Cl)cccc1Cl (centres unmarked) [Example 33, (E)-5-[4-(Benzyl-pyrimidin-2-yl-amino)-phenyl]-2-(2,6-dichlorobenzamido)-pent-4-enoic acid sodium salt]
[1]
  IC50: 16300 nM

## COC1(c2ccc(/C=C/CC(NC(=O)c3c(Cl)cccc3Cl)C(=O)O)cc2)CCOCC1 (centres unmarked) [Example 4, (E)-2-(2,6-Dichlorobenzamido)-5-[4-(4-methoxytetrahydropyran-4-yl)-phenyl]pent-4-enoic acid]
DSS-induced colitis [4]; orally 15 mg/kg every day
  rate of amelioration (stool consistency score): 44%
Jurkat cells
  IC50: 247 nM
[2]
  bioavailability: 55%
  clearance: 10.1 mL/min/kg
[1]
  IC50: 52300 nM

## CC(C)N(c1ccc(/C=C/C[C@H](NC(=O)c2c(Cl)cccc2Cl)C(=O)[O-])cc1)c1ncccn1.[Na+] [Example 84, (S,E)-2-(2,6-Dichlorobenzamido)-5-[4-(isopropyl-pyrimidin-2-ylamino)phenyl]pent-4-enoic acid sodium salt]
Jurkat cells
  IC50: 30 nM
DSS-induced colitis [3]
  rate of amelioration (stool consistency score): 82.4%

## CN(c1ccc(/C=C/CC(NC(=O)c2c(Cl)cccc2Cl)C(=O)O)cc1)c1ncccn1 (centres unmarked) [Example 22, (E)-2-(2,6-Dichlorobenzamido)-5-[4-(methyl-pyrimidin-2-ylamino)phenyl]pent-4-enoic acid]
DSS-induced colitis [4]; orally 15 mg/kg every day
  rate of amelioration (stool consistency score): 67%
Jurkat cells
  IC50: 160 nM
[2]
  bioavailability: 61.7%
  clearance: 5.1 mL/min/kg
[1]
  IC50: 176000 nM

## COC1(c2ccc(/C=C/C[C@H](NC(=O)c3c(Cl)cccc3Cl)C(=O)[O-])cc2)CCOCC1.[Na+] [Example 78, (S,E)-2-(2,6-Dichlorobenzamido)-5-[4-(4-methoxytetrahydropyran-4-yl)-phenyl]pent-4-enoic acid sodium salt]
DSS-induced colitis [4]; orally 15 mg/kg every day
  rate of amelioration (stool consistency score): 40%
Jurkat cells
  IC50: 54 nM

## CCOC1(c2ccc(/C=C/CC(NC(=O)c3c(Cl)cccc3Cl)C(=O)O)cc2)CCOCC1 (centres unmarked) [Example 6, (E)-2-(2,6-Dichlorobenzamido)-5-[4-(4-ethoxytetrahydropyran-4-yl)-phenyl]pent-4-enoic acid]
[2]
  bioavailability: 68.5%
  clearance: 19.8 mL/min/kg
[1]
  IC50: 5630 nM
